# Test results taken from patent publication US20170151351A1, “Gd-ENCAPSULATED CARBON DOTS AND METHODS OF MAKING AND USING THEREOF” (University of Georgia Research Foundation, Inc., priority 2015, published 2017).
# Experiments:
# [1] = tested on: U87MG (human glioma) cells; assay: MTT cytotoxicity assay; format: cell-based; conditions: in the presence of 2.5 mM Ca(II)
# Protocol: The cytotoxicity of Gd@C-dots was evaluated with U87MG (human glioma) cells using 3-(4, 5-dimethylthiazolyl-2)-2,5-diphenyltetrazolium bromide (MTT) assays. 2.5 mM Ca(II) was added into the incubation medium; while posing no direct toxicities to cells, such a high concentration of calcium can cause transmetallation to Gd complexes, leading to liberation of free Gd (Corot, C., et al., J. Magn. Reson. Imaging 1998, 8:695). […] The low toxicity was again attributed to the great resistance of Gd@C-dots against biodegradation and transmetallation.
# c(RGDyK) affords strong binding affinity toward integrin αvβ3, a cancer biomarker that is seen overexpressed on neoplastic blood vessels and in many types of cancer cells. So the resulting conjugates (hereafter designated as RGD-Gd@C-dots) and unmodified Gd@C-dots were incubated with U87MG cells and imaged under a fluorescence microscope (ex/em: 360/460 nm). Specifically, U87MG cells were cultured in DMEM supplemented with 2 mM L-glutamine, 1.5 g/L sodium bicarbonate, 0.1 mM nonessential amino acids, 1.0 mM sodium pyruvate, and 10% fetal bovine serum at 37° C. in a humidified atmosphere with 5% CO2. 10^5 U87MG cells were seeded in 96-well plates (1×10^4 cells per well) 24 h prior to the experiments. […] The slides were mounted and imaged under an Olympus X71 fluorescence microscope.
# [2] = at 7T, literature comparison; cited from earlier work
# [3] = tested on: U87MG (human glioma) cells; conditions: no added Ca(II); cited from earlier work
structure (smiles),measurement,setting,value
O=C([O-])CN(CCN(CC(=O)[O-])CC(=O)O)CCN(CC(=O)[O-])CC(=O)O.[Gd+3] [Gd-DTPA],IC50 (cytotoxicity),[1],33.1 µg/mL
same,r1 relaxivity,[2],3.1 mM⁻¹ s⁻¹
same,toxicity under normal cell culture conditions,[3],no toxicities
